The text below walks through data of US12325697B2 (Nimbus Clio, Inc., priority 2021, dated 2025).

Broadly, the IC50 is the midpoint of a concentration-inhibition curve.

Assay [1] has as its target Recombinant human c-Cbl (aa 47-435) (Homo sapiens (Human), UniProt P22681). Description: c-Cbl Biochemical Assay (TR-FRET). The protocol: Recombinant human c-Cbl (aa 47-435) was expressed in E. coli, purified and biotinylated in vitro. The protein was diluted to 12 nM in freshly prepared assay buffer consisting of 50 mM HEPES, pH 7.0, 100 mM NaCl, 5 mM MgCl2, 0.01% Triton-X 100, 0.01% BSA and 1 mM DTT. Recombinant human Src (aa 254-536)-[…]-Zap-70 (aa 281-297) fusion protein was expressed in E. coli and purified. Protein was diluted in assay buffer to 5-20 nM and ATP was added to 1 mM. Recombinant human UBE2D2([…]) was expressed in E. coli, purified and ubiquitinated and Bodipy labelled in vitro. Protein was diluted to 200 nM in assay buffer without MgCl2 (or Cisbio PPI buffer). Streptavidin-Terbium was added to 2 nM and EDTA to 10 mM, to provide a binding assay mix. Compounds were dissolved in DMSO and diluted to prepare a ten-point half log dilution series. 100 nl of each compound concentration was dispensed in duplicate in a 384 well black assay plate using acoustic dispensing. Wells for maximum signal controls received 100 nl of DMSO only and wells for minimum controls received 100 nl of a reference inhibitor compound at a final assay concentration of […] to produce 100% inhibition. 5 μl of diluted c-cbl enzyme was added to all wells of the assay plate and incubated at RT for 30 min. The enzyme assay was initiated by addition of 5 μl of Src-Zap/ATP mix to all wells, and the plate incubated at RT for 60-90 min. The enzyme reaction was terminated and the binding reaction was initiated by adding 10 μl of binding assay mix to all wells and incubating the plate at RT for 60 min prior to assay read. Final assay conditions consisted of 6 nM c-cbl, 2.5-10 nM Src-Zap70, 0.5 mM ATP, 1% (v/v) DMSO (enzyme reaction) and 100 nM UBE2D2([…])-Ub-FL-BODIPY, 5 mM EDTA, 1 nM Streptavidin-Tb (binding reaction). The HTRF assay signal was measured at 520 nm on an Envision plate reader, with reference signal at 485 or 620 nm. Data was normalized using maximum and minimum assay controls: % Inhibition=100-(100*((maximum control)-unknown)/(maximum control-minimum control)). A 4-parameter dose-response equation was used to fit the normalized dose-response data and derive an IC50 for test compounds.

In assay [2] the target is Recombinant human Cbl-b (aa 36-427) (Homo sapiens (Human), UniProt Q13191). Put plainly: Cbl-b Biochemical Assay (TR-FRET). Conditions: read-out: TR-FRET hCbl-b IC50. Put shortly:
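Two-step TR-FRET: 6 nM biotinylated Cbl-b preincubated 30-60 min with compound, then 60 min at RT with 1-2.5 nM Src-Zap70 and 0.5 mM ATP in HEPES pH 7.0 buffer, 1% DMSO. Stopped with 5 mM EDTA plus 100 nM UBE2D2-Ub-FL-BODIPY and 1 nM streptavidin-Tb, 60 min; 520 nm signal; IC50 from 4-parameter fit.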
On the technique in general: In TR-FRET formats the signal depends on donor and acceptor labels being close together.

Recombinant human c-Cbl (aa 47-435), sequence (P22681 47-435): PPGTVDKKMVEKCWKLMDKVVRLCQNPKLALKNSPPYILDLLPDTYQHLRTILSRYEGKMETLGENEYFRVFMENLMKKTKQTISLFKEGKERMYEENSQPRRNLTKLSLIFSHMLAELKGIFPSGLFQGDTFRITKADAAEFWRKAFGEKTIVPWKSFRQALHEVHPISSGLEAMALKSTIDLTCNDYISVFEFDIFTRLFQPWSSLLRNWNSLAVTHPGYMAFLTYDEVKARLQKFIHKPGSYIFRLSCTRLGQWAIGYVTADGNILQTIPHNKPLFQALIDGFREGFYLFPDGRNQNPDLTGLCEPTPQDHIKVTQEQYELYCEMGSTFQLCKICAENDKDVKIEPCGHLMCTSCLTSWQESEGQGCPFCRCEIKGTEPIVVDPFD
Recombinant human Cbl-b (aa 36-427), sequence (Q13191 36-427): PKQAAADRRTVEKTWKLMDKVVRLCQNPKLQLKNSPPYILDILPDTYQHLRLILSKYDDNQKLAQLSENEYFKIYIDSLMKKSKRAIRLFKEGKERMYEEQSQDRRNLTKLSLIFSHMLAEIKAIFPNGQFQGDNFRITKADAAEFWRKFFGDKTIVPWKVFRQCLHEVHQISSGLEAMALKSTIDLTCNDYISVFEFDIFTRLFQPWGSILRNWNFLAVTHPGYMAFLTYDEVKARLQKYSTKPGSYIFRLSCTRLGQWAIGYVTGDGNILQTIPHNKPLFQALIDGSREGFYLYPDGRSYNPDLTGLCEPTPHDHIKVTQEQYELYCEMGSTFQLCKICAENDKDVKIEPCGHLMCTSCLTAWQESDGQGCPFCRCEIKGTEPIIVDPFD

For the compound `Cn1cnnc1-c1cc(C#N)ccc1-c1cc(C2CC2)nc(N2Cc3ccc(CN4CC5CC5C4)cc3C2=O)c1` (stereo not shown) [ANA-1, 4-[2-(6-{3-Azabicyclo[3.1.0]hexan-3-ylmethyl}-1-oxo-3H-isoindol-2-yl)-6-cyclopropylpyridin-4-yl]-3-(4-methyl-1,2,4-triazol-3-yl)benzonitrile], the IC50 in assay [1] and in assay [2] was ≤ 200 nM throughout. With `Cn1cnnc1-c1cc(C#N)ccc1-c1cc(C2CC2)nc(N2Cc3ccc(CN4C[C@@H]5C[C@H]4CO5)cc3C2=O)c1` [AMN-1, 4-(2-Cyclopropyl-6-{6-[(1S,4S)-2-oxa-5-azabicyclo[2.2.1]heptan-5-ylmethyl]-1-oxo-3H-isoindol-2-yl}pyridin-4-yl)-3-(4-methyl-1,2,4-triazol-3-yl)benzonitrile], the IC50 in assay [1] and in assay [2] was ≤ 200 nM throughout.

On to `Cn1cnnc1-c1cc(C#N)ccc1-c1cc(C2CC2)nc(N2Cc3ccc(CNC4COC4)cc3C2=O)c1` [AMV-2, 4-(2-Cyclopropyl-6-{6-[(oxetan-3-ylamino)methyl]-1-oxo-3H-isoindol-2-yl}pyridin-4-yl)-3-(4-methyl-1,2,4-triazol-3-yl)benzonitrile], for which the IC50 in assay [1] and in assay [2] was ≤ 200 nM in each case. Take `Cn1cnnc1-c1cc(C#N)ccc1-c1cc(C2CC2)nc(N2Cc3ccc(C(C)(C)NCC4CCC4)cc3C2=O)c1` [AOS-2, 4-[2-(6-{2-[(Cyclobutylmethyl)amino]propan-2-yl}-1-oxo-3H-isoindol-2-yl)-6-cyclopropylpyridin-4-yl]-3-(4-methyl-1,2,4-triazol-3-yl)benzonitrile]: the half-maximal inhibitory concentration (IC50) in assay [1] and in assay [2] was ≤ 200 nM throughout.

For the compound `Cn1cnnc1-c1cc(C#N)ccc1-c1cc(C2CC2)nc(N2Cc3c(cc(CNCCOC(F)(F)F)c(F)c3F)C2=O)c1` [ALY-2, 4-{2-Cyclopropyl-6-[4,5-difluoro-1-oxo-6-({[2-(trifluoromethoxy)ethyl]amino}methyl)-3H-isoindol-2-yl]pyridin-4-yl}-3-(4-methyl-1,2,4-triazol-3-yl)benzonitrile], the 50% inhibitory concentration (IC50) in assay [1] and in assay [2] was ≤ 200 nM in each case. On to `CCOc1cc(-c2ccc(C#N)cc2-c2nncn2C)cc(N2Cc3ccc(CO)cc3C2=O)n1` [AKX-1, 4-{2-Ethoxy-6-[6-(hydroxymethyl)-1-oxo-3H-isoindol-2-yl]pyridin-4-yl}-3-(4-methyl-1,2,4-triazol-3-yl)benzonitrile], for which the IC50 in assay [1] was 200 to 1000 nM; in assay [2] it was ≤ 200 nM. `COC[C@H]1CCN1Cc1cc(F)c2c(c1)C(=O)N(c1cc(-c3ccc(C#N)cc3-c3nncn3C)cc(C3CC3)n1)C2` [AOW-2, 4-[2-Cyclopropyl-6-(4-fluoro-6-{[(2R)-2-(methoxymethyl)azetidin-1-yl]methyl}-1-oxo-3H-isoindol-2-yl)pyridin-4-yl]-3-(4-methyl-1,2,4-triazol-3-yl)benzonitrile]: the IC50 in assay [1] and in assay [2] was ≤ 200 nM in each case. With `Cn1cnnc1-c1cc(C#N)ccc1-c1cc(C2CC2)nc(N2Cc3cnc(CO)cc3C2=O)c1` [ALE-7, 4-{2-Cyclopropyl-6-[6-(hydroxymethyl)-1-oxo-3H-pyrrolo[3,4-c]pyridin-2-yl]pyridin-4-yl}-3-(4-methyl-1,2,4-triazol-3-yl)benzonitrile], the half-maximal inhibitory concentration (IC50) was ≤ 200 nM in assay [1] and 200 to 1000 nM in assay [2]. The like results for `CO[C@H](C)[C@@H](C)NCc1cc(F)c2c(c1)C(=O)N(c1cc(-c3ccc(C#N)cc3-c3nncn3C)cc(C3CC3)n1)C2` [ALC-2, 4-{2-Cyclopropyl-6-[4-fluoro-6-({[(2R,3R)-3-methoxybutan-2-yl]amino}methyl)-1-oxo-3H-isoindol-2-yl]pyridin-4-yl}-3-(4-methyl-1,2,4-triazol-3-yl)benzonitrile] were, in that order, ≤ 200 nM and ≤ 200 nM. The like results for `Cn1cnnc1-c1cc(C#N)ccc1-c1cc(C2CC2)nc(N2Cc3ccc([C@@H]4COC[C@H](C5CCC5)N4)cc3C2=O)c1` (stereo in doubt) [AOQ-1, rel-4-(2-{6-[(3R,5S)-5-Cyclobutylmorpholin-3-yl]-1-oxo-3H-isoindol-2-yl}-6-cyclopropylpyridin-4-yl)-3-(4-methyl-1,2,4-triazol-3-yl)benzonitrile] were, in that order, ≤ 200 nM and ≤ 200 nM. The like results for `Cn1cnnc1-c1cc(C#N)ccc1-c1cc(C2CC2)nc(N2Cc3ccc(CN4CC5(COC5)C4)cc3C2=O)c1` [AOL-1, 4-[2-Cyclopropyl-6-(6-{2-oxa-6-azaspiro[3.3]heptan-6-ylmethyl}-1-oxo-3H-isoindol-2-yl)pyridin-4-yl]-3-(4-methyl-1,2,4-triazol-3-yl)benzonitrile] were, in that order, ≤ 200 nM and ≤ 200 nM. Regarding `Cn1cnnc1-c1cc(C#N)ccc1-c1cc(C2CC2)nc(N2Cc3ccc([C@H]4COC[C@@H](C5CCC5)N4)cc3C2=O)c1` (stereo in doubt) [AOR-1, rel-4-(2-{6-[(3R,5S)-5-Cyclobutylmorpholin-3-yl]-1-oxo-3H-isoindol-2-yl}-6-cyclopropylpyridin-4-yl)-3-(4-methyl-1,2,4-triazol-3-yl)benzonitrile], the concentration for half-maximal inhibition (IC50) in assay [1] and in assay [2] was ≤ 200 nM in each case.

For `C[C@H](NCc1ccc2c(c1)C(=O)N(c1cc(-c3ccc(C#N)cc3-c3nncn3C)cc(C3CC3)n1)C2)C1COC1` [ANK-2, (S)-4-(2-Cyclopropyl-6-(6-(((1-(oxetan-3-yl)ethyl)amino)methyl)-1-oxoisoindolin-2-yl)pyridin-4-yl)-3-(4-methyl-4H-1,2,4-triazol-3-yl)benzonitrile], the IC50 in assay [1] and in assay [2] was ≤ 200 nM each time. For the compound `Cn1cnnc1-c1cc(C#N)ccc1-c1cc(C2CC2)nc(N2Cc3ccc(CNC(C)(C)C4CCC4)cc3C2=O)c1` [AOM-2, 4-[2-(6-{[(2-Cyclobutylpropan-2-yl)amino]methyl}-1-oxo-3H-isoindol-2-yl)-6-cyclopropylpyridin-4-yl]-3-(4-methyl-1,2,4-triazol-3-yl)benzonitrile], the IC50 in assay [1] and in assay [2] was ≤ 200 nM in each case. As to `Cn1cnnc1-c1cc(C#N)ccc1-c1cc(C2CC2)nc(N2Cc3ccc(CNC[C@H]4CCOC4)cc3C2=O)c1` [ANZ-2, 4-{2-Cyclopropyl-6-[1-oxo-6-({[(3R)-oxolan-3-ylmethyl]amino}methyl)-3H-isoindol-2-yl]pyridin-4-yl}-3-(4-methyl-1,2,4-triazol-3-yl)benzonitrile], the IC50 in assay [1] and in assay [2] was ≤ 200 nM throughout. In the case of `Cn1cnnc1-c1cc(C#N)ccc1-c1cc(C2CC2)nc(N2Cc3ccc(OC[C@H](O)CO)cc3C2=O)c1` [AJN-3, (R)-4-(2-Cyclopropyl-6-(6-(2,3-dihydroxypropoxy)-1-oxoisoindolin-2-yl)pyridin-4-yl)-3-(4-methyl-4H-1,2,4-triazol-3-yl)benzonitrile], the IC50 in assay [1] and in assay [2] was ≤ 200 nM in each case. Regarding `Cn1cnnc1-c1cc(C#N)ccc1-c1cc(C2CC2)nc(N2Cc3cc(Cl)c(CO)cc3C2=O)c1` [AKN-12, 4-{2-[5-Chloro-6-(hydroxymethyl)-1-oxo-3H-isoindol-2-yl]-6-cyclopropylpyridin-4-yl}-3-(4-methyl-1,2,4-triazol-3-yl)benzonitrile], the IC50 in assay [1] and in assay [2] was ≤ 200 nM in each case. Take `CCOc1cc(-c2ccc(F)cc2-c2nncn2C)cc(N2Cc3ccc(CO)cc3C2=O)n1` [ANS-1]: the half-maximal inhibitory concentration (IC50) in assay [1] lay in the range of 200 to 1000 nM.

On to `Cn1cnnc1-c1ccccc1-c1cccc(N2Cc3c(cc(CN4CC[C@H](F)C4)cc3C(F)(F)F)C2=O)c1` [Example V-2, (S)-6-((3-Fluoropyrrolidin-1-yl)methyl)-2-(2′-(4-methyl-4H-1,2,4-triazol-3-yl)-[1,1′-biphenyl]-3-yl)-4-(trifluoromethyl)isoindolin-1-one], for which the IC50 in assay [2] is ≤ 200 nM. Take `CCn1cc(-c2nncn2C)c(-c2cccc(N3Cc4c(cccc4C(F)(F)F)C3=O)c2)n1` [AAF-9, 2-[3-[1-Ethyl-4-(4-methyl-1,2,4-triazol-3-yl)pyrazol-3-yl]phenyl]-4-(trifluoromethyl)-3H-isoindol-1-one]: the IC50 in assay [2] is 10000 to 50000 nM.
